Measured values from the NIST ThermoML archive (doi:10.1021/acs.jced.9b00420).

Conditions: Liquid; for mass density: Vibrating tube method; for speed of sound: Light diffraction method

CCCCCCCCC(=O)OCC [ethyl nonanoate]
Conditions | mass density [kg/m3] | speed of sound [m/s]
293.15 K, 100 kPa | 865.02 | –
295.24 K, 10000 kPa | – | 1348.5
295.29 K, 7000 kPa | – | 1342.4
295.35 K, 5000 kPa | – | 1336.6
295.41 K, 3000 kPa | – | 1327.1
295.53 K, 1000 kPa | – | 1318.3
295.67 K, 100 kPa | – | 1303.3
298.15 K, 100 kPa | 860.89 | –
303.15 K, 100 kPa | 856.75 | –
303.18 K, 10000 kPa | – | 1318
303.22 K, 3000 kPa | – | 1296.2
303.26 K, 1000 kPa | – | 1278.4
303.3 K, 7000 kPa | – | 1307
303.41 K, 5000 kPa | – | 1298
303.48 K, 100 kPa | – | 1273.9
313.08 K, 10000 kPa | – | 1283.3
313.14 K, 1000 kPa | – | 1242.7
313.15 K, 100 kPa | 848.43 | –
313.45 K, 7000 kPa | – | 1266
313.56 K, 3000 kPa | – | 1252.4
313.77 K, 100 kPa | – | 1224.9
314.03 K, 5000 kPa | – | 1262.6
322.95 K, 7000 kPa | – | 1231.4
323.15 K, 100 kPa | 840.09 | –
323.39 K, 10000 kPa | – | 1246.8
323.64 K, 5000 kPa | – | 1215.5
323.68 K, 100 kPa | – | 1183.3
324.78 K, 3000 kPa | – | 1204.3
324.85 K, 1000 kPa | – | 1195.5
332.89 K, 10000 kPa | – | 1208.8
332.93 K, 3000 kPa | – | 1175.1
333.15 K, 100 kPa | 831.73 | –
333.21 K, 1000 kPa | – | 1163.1
334.21 K, 5000 kPa | – | 1185
334.21 K, 7000 kPa | – | 1191.7
334.94 K, 100 kPa | – | 1142.9
342.88 K, 3000 kPa | – | 1137.2
343.1 K, 10000 kPa | – | 1170.1
343.12 K, 5000 kPa | – | 1153.6
343.15 K, 100 kPa | 823.33 | –
343.24 K, 1000 kPa | – | 1123.8
343.31 K, 7000 kPa | – | 1157.3
343.51 K, 100 kPa | – | 1107.8
351.94 K, 3000 kPa | – | 1098.9
352.22 K, 1000 kPa | – | 1085.5
352.39 K, 10000 kPa | – | 1135
353.15 K, 100 kPa | 814.88 | –
353.27 K, 5000 kPa | – | 1106.1
353.32 K, 7000 kPa | – | 1114.4
354.18 K, 100 kPa | – | 1065.4
361.97 K, 5000 kPa | – | 1078.7
362.59 K, 7000 kPa | – | 1085.6
362.97 K, 3000 kPa | – | 1063.9
363 K, 10000 kPa | – | 1106.9
363.3 K, 1000 kPa | – | 1046
364.18 K, 100 kPa | – | 1028.8
371.77 K, 5000 kPa | – | 1046.8
371.91 K, 1000 kPa | – | 1012.3
371.99 K, 100 kPa | – | 1003
372.73 K, 3000 kPa | – | 1024.3
373.24 K, 10000 kPa | – | 1068.4
373.26 K, 7000 kPa | – | 1045.8
381.51 K, 5000 kPa | – | 1011.2
381.89 K, 100 kPa | – | 965.2
381.96 K, 3000 kPa | – | 995.2
383.17 K, 10000 kPa | – | 1037.3
383.69 K, 7000 kPa | – | 1011.5
384.3 K, 1000 kPa | – | 971.3
391.7 K, 5000 kPa | – | 974.2
391.74 K, 7000 kPa | – | 985.8
391.74 K, 10000 kPa | – | 1009.8
391.75 K, 1000 kPa | – | 939.5
391.81 K, 3000 kPa | – | 961.1
391.89 K, 100 kPa | – | 932.1
403.31 K, 1000 kPa | – | 902.3
403.36 K, 7000 kPa | – | 943.9
403.46 K, 3000 kPa | – | 921.8
403.47 K, 10000 kPa | – | 968.6
403.82 K, 5000 kPa | – | 929.8
405.01 K, 100 kPa | – | 884
412.73 K, 3000 kPa | – | 893.7
412.73 K, 10000 kPa | – | 936.6
412.81 K, 7000 kPa | – | 917.8
412.98 K, 1000 kPa | – | 870.1
413.05 K, 5000 kPa | – | 904.2
413.84 K, 100 kPa | – | 861.2
421.5 K, 5000 kPa | – | 875.4
421.83 K, 1000 kPa | – | 842.1
421.98 K, 10000 kPa | – | 916
422 K, 7000 kPa | – | 891
